Assay results as given in PubChem BioAssay AID1963846 (Molecular Pharmacology Branch, DTP, NCI, 2024).

System: 454973-116-R2-J3-PDC complex spheroid viability
Experiment: Anticancer human tumor 454973-116-R2-J3-PDC patient-derived pancreatic carcinoma cell line growth inhibition [POLQ]
Details: for IC50: curve of first compound; for viability, T/C: stronger effect = lower value
Method in brief: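 Patient-derived tumour cells were co-cultured with HUVEC and mesenchymal stem cells as multicellular spheroids at 37 °C. They were treated with POLQ inhibitors (novobiocin, ART-558, RP6685) alone or combined with other agents. Top concentrations were at or near clinical Cmax (otherwise 10 microM; SN-38 at 1 microM), decreasing in half-log steps.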

[1] = second compound 0.0316 µM, first compound 0.0316 µM
[2] = second compound 0.0316 µM, first compound 0.1 µM
[3] = second compound 0.0316 µM, first compound 0.316 µM
[4] = second compound 0.0316 µM, first compound 1 µM
[5] = second compound 0.0316 µM, first compound 3.16 µM
[6] = second compound 0.0316 µM, first compound 10 µM
[7] = second compound 0.1 µM, first compound 0.0316 µM
[8] = second compound 0.1 µM, first compound 0.1 µM
[9] = second compound 0.1 µM, first compound 0.316 µM
[10] = second compound 0.1 µM, first compound 1 µM
[11] = second compound 0.1 µM, first compound 3.16 µM
[12] = second compound 0.1 µM, first compound 10 µM
[13] = second compound 0.316 µM, first compound 0.0316 µM
[14] = second compound 0.316 µM, first compound 0.1 µM
[15] = second compound 0.316 µM, first compound 0.316 µM
[16] = second compound 0.316 µM, first compound 1 µM
[17] = second compound 0.316 µM, first compound 3.16 µM
[18] = second compound 0.316 µM, first compound 10 µM
[19] = second compound 1 µM, first compound 0.0316 µM
[20] = second compound 1 µM, first compound 0.1 µM
[21] = second compound 1 µM, first compound 0.316 µM
[22] = second compound 1 µM, first compound 1 µM
[23] = second compound 1 µM, first compound 3.16 µM
[24] = second compound 1 µM, first compound 10 µM
[25] = second compound 3.16 µM, first compound 0.0316 µM
[26] = second compound 3.16 µM, first compound 0.1 µM
[27] = second compound 3.16 µM, first compound 0.316 µM
[28] = second compound 3.16 µM, first compound 1 µM
[29] = second compound 3.16 µM, first compound 3.16 µM
[30] = second compound 3.16 µM, first compound 10 µM
[31] = second compound 10 µM, first compound 0.0316 µM
[32] = second compound 10 µM, first compound 0.1 µM
[33] = second compound 10 µM, first compound 0.316 µM
[34] = second compound 10 µM, first compound 1 µM
[35] = second compound 10 µM, first compound 3.16 µM
[36] = second compound 10 µM, first compound 10 µM
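Also: spheroids exposed to drugs for seven days before measurement.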
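For viability, T/C in this document: percent viability relative to DMSO vehicle control wells taken as 100%.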

CCCS(=O)(=O)Nc1ccc(F)c(C(=O)c2c[nH]c3ncc(-c4ccc(Cl)cc4)cc23)c1F + Cc1cccc(N(C)C(=O)C2C(O)CCN2c2nc(C)cc(C(F)(F)F)c2C#N)c1
IC50 (second compound 0.0316 µM): 8.18 µM | IC50 (second compound 0.1 µM): 8.77 µM | IC50 (second compound 0.316 µM): 8.92 µM | IC50 (second compound 1 µM): 8.4 µM | IC50 (second compound 3.16 µM): 8.13 µM | IC50 (second compound 10 µM): 6.95 µM | viability, T/C [1]: 108% | viability, T/C [2]: 116% | viability, T/C [3]: 112% | viability, T/C [4]: 118% | viability, T/C [5]: 113% | viability, T/C [6]: 36.7% | viability, T/C [7]: 105% | viability, T/C [8]: 111% | viability, T/C [9]: 115% | viability, T/C [10]: 122% | viability, T/C [11]: 111% | viability, T/C [12]: 42.1% | viability, T/C [13]: 108% | viability, T/C [14]: 116% | viability, T/C [15]: 118% | viability, T/C [16]: 113% | viability, T/C [17]: 123% | viability, T/C [18]: 42.7% | viability, T/C [19]: 136% | viability, T/C [20]: 110% | viability, T/C [21]: 114% | viability, T/C [22]: 111% | viability, T/C [23]: 126% | viability, T/C [24]: 37.3% | viability, T/C [25]: 117% | viability, T/C [26]: 110% | viability, T/C [27]: 104% | viability, T/C [28]: 105% | viability, T/C [29]: 115% | viability, T/C [30]: 36.8% | viability, T/C [31]: 120% | viability, T/C [32]: 112% | viability, T/C [33]: 110% | viability, T/C [34]: 111% | viability, T/C [35]: 118% | viability, T/C [36]: 20.3%

C=CC(=O)N1CCN(c2nc(=O)n(-c3c(C)ccnc3C(C)C)c3nc(-c4c(O)cccc4F)c(F)cc23)C(C)C1 (stereo unspecified) + Nc1ccc(C#CCN(C(=O)Cc2ncc(C(F)(F)F)cc2C(F)(F)F)c2ccc(F)cc2)nn1
IC50 (second compound 0.0316 µM): > 10 µM | IC50 (second compound 0.1 µM): > 10 µM | IC50 (second compound 0.316 µM): > 10 µM | IC50 (second compound 1 µM): > 10 µM | IC50 (second compound 3.16 µM): > 10 µM | IC50 (second compound 10 µM): > 10 µM | viability, T/C [1]: 103% | viability, T/C [2]: 106% | viability, T/C [3]: 110% | viability, T/C [4]: 111% | viability, T/C [5]: 113% | viability, T/C [6]: 113% | viability, T/C [7]: 103% | viability, T/C [8]: 97.1% | viability, T/C [9]: 110% | viability, T/C [10]: 114% | viability, T/C [11]: 111% | viability, T/C [12]: 117% | viability, T/C [13]: 102% | viability, T/C [14]: 106% | viability, T/C [15]: 107% | viability, T/C [16]: 106% | viability, T/C [17]: 124% | viability, T/C [18]: 116% | viability, T/C [19]: 102% | viability, T/C [20]: 110% | viability, T/C [21]: 109% | viability, T/C [22]: 123% | viability, T/C [23]: 121% | viability, T/C [24]: 114% | viability, T/C [25]: 111% | viability, T/C [26]: 118% | viability, T/C [27]: 120% | viability, T/C [28]: 123% | viability, T/C [29]: 125% | viability, T/C [30]: 114% | viability, T/C [31]: 118% | viability, T/C [32]: 113% | viability, T/C [33]: 116% | viability, T/C [34]: 123% | viability, T/C [35]: 137% | viability, T/C [36]: 116%

COc1cc(C2c3cc4c(cc3C(OC3OC5COC(C)OC5C(O)C3O)C3COC(=O)C23)OCO4)cc(OC)c1O (stereo unspecified) + Cc1cccc(N(C)C(=O)C2C(O)CCN2c2nc(C)cc(C(F)(F)F)c2C#N)c1
IC50 (second compound 0.0316 µM): 1.5 µM | IC50 (second compound 0.1 µM): 1.52 µM | IC50 (second compound 0.316 µM): 1.36 µM | IC50 (second compound 1 µM): 1.3 µM | IC50 (second compound 3.16 µM): 1.07 µM | IC50 (second compound 10 µM): 0.886 µM | viability, T/C [1]: 97.9% | viability, T/C [2]: 108% | viability, T/C [3]: 87.6% | viability, T/C [4]: 66.1% | viability, T/C [5]: 23.4% | viability, T/C [6]: 10.1% | viability, T/C [7]: 102% | viability, T/C [8]: 99.5% | viability, T/C [9]: 89.6% | viability, T/C [10]: 65.8% | viability, T/C [11]: 24% | viability, T/C [12]: 11.7% | viability, T/C [13]: 101% | viability, T/C [14]: 102% | viability, T/C [15]: 87.7% | viability, T/C [16]: 61.5% | viability, T/C [17]: 21.8% | viability, T/C [18]: 9.93% | viability, T/C [19]: 111% | viability, T/C [20]: 104% | viability, T/C [21]: 88.3% | viability, T/C [22]: 60.6% | viability, T/C [23]: 21.1% | viability, T/C [24]: 11.1% | viability, T/C [25]: 106% | viability, T/C [26]: 92.9% | viability, T/C [27]: 82.1% | viability, T/C [28]: 52.5% | viability, T/C [29]: 23.1% | viability, T/C [30]: 13.2% | viability, T/C [31]: 111% | viability, T/C [32]: 105% | viability, T/C [33]: 78.5% | viability, T/C [34]: 47% | viability, T/C [35]: 21.7% | viability, T/C [36]: 10.5%
